Results on six compounds are retold here after US20080159980A1, “Combination cancer therapy with a GST-activated anticancer compound and another anticancer therapy” (Telik, Inc., priority 2002, published 2008).

The structures appear in SMILES notation. Like-named read-outs stand apart in the source and are kept apart here.

The target of one test is T1, GST M1a-1a (Homo sapiens, UniProt P09488).
T1 sequence (P09488 1-218): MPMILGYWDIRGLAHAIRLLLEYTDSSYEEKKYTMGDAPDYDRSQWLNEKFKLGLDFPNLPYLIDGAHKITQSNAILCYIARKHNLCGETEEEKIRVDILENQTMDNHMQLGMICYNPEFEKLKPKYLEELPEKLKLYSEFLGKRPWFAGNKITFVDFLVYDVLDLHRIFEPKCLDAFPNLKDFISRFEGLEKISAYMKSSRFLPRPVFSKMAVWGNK
To be noted: cited from earlier work.

The test system of test [1] is human ovarian cancer cell line OVCAR-3. Nature of the test: OVCAR-3 cell viability, Wst-1 assay (Example 1). In kind it is cell-based. To be noted: OVCAR-3, Wst-1, approximately three cell doublings. As to the method: (§1) Assay methods. All assays were conducted in triplicate wells, with solvent control. The extent of cell growth was expressed as a percentage of the signal from the solvent control wells. The means were computed and graphed, with the standard deviations shown as error bars.
The diluted compounds or solvent controls were then added at 50 μL/well. […] The results were further analyzed using the Combination Index (CI) method with the “CalcuSyn” program from Biosoft.

The test system of test [2] is human colon cancer cell line DLD-1. As to the kind of experiment: cells. It counts as cell-based. To be noted: DLD-1, read-out: IC20 (concentration of TLK286 used in FIG. 2). As to the method: as §1
The human colon cancer cell line DLD-1 was seeded at 4×10^4 cells/mL, 150 μL/well, and allowed to attach to the wells overnight. The diluted compounds or solvent controls were then added at 50 μL/well. Incubation with TLK286 alone and in combination with oxaliplatin was continued for approximately four cell doublings, and cell viability was determined using the CellTiter-Glo assay (Promega Corporation, Madison, Wis., U.S.A.), used in accordance with the assay kit directions. […] The results were further analyzed using the Combination Index (CI) method with the “CalcuSyn” program from Biosoft.

In test [3] the test system is human breast cancer cell line MCF-7. As to the kind of experiment: MCF-7 cell proliferation, BrdU chemiluminescence assay (Example 4). In kind it is cell-based. As to the method: as §1
MCF-7 was seeded at 4×10^4 cells/mL, 150 μL/well, and allowed to attach to the wells for 4-5 hours. The diluted compounds or solvent controls were then added at 50 μL/well. Incubation with TLK286 alone and in combination with docetaxel was continued for one doubling, and cell proliferation was determined using the BrdU (chemiluminescence) assay, by labeling with BrdU (Roche Diagnostics Corporation, Indianapolis, Ind., U.S.A.) overnight. The assay is based on the incorporation of BrdU, an analogue of thymidine, during DNA synthesis. The incorporation of BrdU, which reflects the extent of cell proliferation, was then quantitated with an ELISA kit (also from Roche Diagnostics Corporation). The results were analyzed according to the Combination Index method.

The test system of test [4] is human lung cancer cell line A-549. Nature of the test: cells. In kind it is cell-based. To be noted: A549, read-out: IC50 (concentration of TLK286 used in FIG. 5).
The subject of test [5] is human non-Hodgkin's B cell lymphoma cell line RL. Nature of the test: RL cell growth, method similar to Example 2 (Example 8). In kind it is cell-based. Particulars: RL cells.
Test [6] has as its system human ovarian cancer cell line OVCAR-3.
Method: The results were analyzed according to the Combination Index method with the “CalcuSyn” program from Biosoft.
Test [7] relates to ovarian, breast, non-small cell lung, and colorectal cancers.
The test system of test [8] is M6709 human colon carcinoma cell line selected for resistance to doxorubicin. Particulars: doxorubicin-resistant line overexpressing GST P1-1; Morgan et al. 1998; cited from earlier work.
Test [9] relates to MCF-7 human breast carcinoma cell line selected for resistance to cyclophosphamide. Particulars: cyclophosphamide-resistant line overexpressing GST P1-1; Morgan et al. 1998; cited from earlier work.
For test [10], the system named is murine xenografts of M7609 engineered to have high, medium, and low levels of GST P1-1. Particulars: Morgan et al. 1998; cited from earlier work.
The test system of test [11] is in vitro cell culture and tumor biopsies. Particulars: Rosario et al. 2000; cited from earlier work.
The target in another test is GST P1-1 (Homo sapiens, UniProt P09211). To be noted: releases cytotoxic phosphorodiamidate mustard moiety; cited from earlier work.
Sequence of GST P1-1 (P09211 2-210 limits assumed): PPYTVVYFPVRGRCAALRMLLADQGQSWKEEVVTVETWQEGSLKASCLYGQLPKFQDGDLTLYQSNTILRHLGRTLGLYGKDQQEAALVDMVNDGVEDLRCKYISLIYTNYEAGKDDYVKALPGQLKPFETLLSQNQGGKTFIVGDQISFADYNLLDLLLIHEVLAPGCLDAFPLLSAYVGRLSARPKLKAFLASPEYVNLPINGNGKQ
The target of the next test is T2, GST A1-1 (Homo sapiens, UniProt P08263).
T2 sequence (P08263 2-222 limits assumed): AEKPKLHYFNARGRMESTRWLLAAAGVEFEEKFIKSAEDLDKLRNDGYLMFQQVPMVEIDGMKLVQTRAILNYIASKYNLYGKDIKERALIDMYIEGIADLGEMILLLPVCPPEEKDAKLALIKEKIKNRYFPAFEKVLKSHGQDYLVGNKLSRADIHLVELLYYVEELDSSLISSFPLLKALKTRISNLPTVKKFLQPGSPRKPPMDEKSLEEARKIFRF
Particulars: cited from earlier work.

Test [12] relates to human breast cancer cell line MX-1. Nature of the test: MX-1 cell growth, method similar to Example 2 (Example 9). It counts as cell-based. To be noted: MX-1 cells.

Take `N[C@@H](CCC(=O)N[C@@H](CS(=O)(=O)CCOP(=O)(N(CCCl)CCCl)N(CCCl)CCCl)C(=O)NCC(=O)O)C(=O)O` [TLK231, L-γ-glutamyl-3-[[2-[[bis[bis(2-chloroethyl)amino]phosphinyl]oxy]ethyl]sulfonyl]-L-alanyl-glycine]: at GST M1a-1a, the “activation by GST isoenzyme” value is given as “activated”.
As for `N[C@@H](CCC(=O)N[C@@H](CS(=O)(=O)CCOP(=O)(N(CCCl)CCCl)N(CCCl)CCCl)C(=O)N[C@@H](C(=O)O)c1ccccc1)C(=O)O` [TLK286, L-γ-glutamyl-3-[[2-[[bis[bis (2-chloroethyl)amino]phosphinyl]oxy]ethyl]sulfonyl]-L-alanyl-2-phenyl-(2R)-glycine], the “IC30 (concentration of TLK286 used in FIG. 1)” value in [1] is roughly 3.1 µM. The IC20 in test [2] is roughly 9 µM. Moreover, the “IC40 (concentration of TLK286 used in FIG. 4)” value in test [3] (MCF-7, BrdU incorporation, one doubling) was roughly 3.3 µM. For the same compound, the IC50 in test [4] was roughly 4 µM. Moreover, the “IC25 (concentration of TLK286 used in FIG. 8)” value in test [5] is roughly 4.6 µM. Further, the “IC10 (concentration of TLK286 used in FIG. 3)” value in [6] is roughly 1.7 µM. The “single agent clinical activity” value in test [7] (colorectal and breast cancer) is “single agent antitumor activity”; in [7] (patients with non-small cell lung cancer and ovarian cancer), “significant single agent antitumor activity and improvement in survival”. Also, the “potency in resistant line over parental cell line” value in test [8] and in test [9] was “more potent” each time. Moreover, the “potency in xenografts versus GST P1-1 level” value in test [10] is on record as “positively correlated with the level of GST P1-1”. Further, the “cross-resistance to platinum, paclitaxel, doxorubicin and gemcitabine” value in test [11] is “non-cross-resistant”. The “activation by GST isoenzyme” value at GST P1-1 and at GST A1-1 was “activated” each time.
For `N[C@@H](CCC(=O)N[C@@H](Cc1cccc(S(=O)(=O)CCOP(=O)(N(CCCl)CCCl)N(CCCl)CCCl)c1)C(=O)NCC(=O)O)C(=O)O` [TLK296, L-γ-glutamyl-3-[[2-[[bis[bis(2-chloroethyl)amino]phosphinyl]oxy]ethyl]sulfonyl]-L-phenylalanyl-glycine], the “activation by GST isoenzyme” value at GST P1-1 was “activated”.
As for `C[C@@](NC(=O)[C@H](CS(=O)(=O)CCOP(=O)(N(CCCl)CCCl)N(CCCl)CCCl)NC(=O)CC[C@H](N)C(=O)O)(C(=O)O)c1ccccc1` [TLK303, L-γ-glutamyl-3-[[2-[[bis[bis(2-choroethyl)-amino]phosphinyl]oxy]ethyl]sulfonyl]-L-alanyl-2-phenyl-(2S) -alanine], the “activation by GST isoenzyme” value on GST A1-1 is reported as “activated”.
Turning to `CC(=O)O[C@@]12CO[C@@H]1C[C@H](O)[C@@]1(C)C(=O)[C@H](O)C3=C(C)[C@@H](OC(=O)[C@H](O)[C@@H](NC(=O)OC(C)(C)C)c4ccccc4)C[C@@](O)([C@@H](OC(=O)c4ccccc4)[C@H]21)C3(C)C` [docetaxel, reference compound], in [3] (MCF-7, BrdU, docetaxel about 0.8 to 3 nM, from nearly no effect), the “inhibition of proliferation at top of concentration range” value is recorded as roughly 60%.
Take `COc1cc2ncnc(Nc3ccc(F)c(Cl)c3)c2cc1OCCCN1CCOCC1` [gefitinib]: the “IC30 (concentration of gefitinib used in FIG. 9)” value in test [12] was roughly 2.0 µM.
